Data from PubChem BioAssay AID330 (DTP/NCI, 2004).
Where “and” joins values, the source holds several entries; their conditions need not be identical. Equal entries are not always repeated. Toxic doses and inconclusive results are not listed. Rule for the calls: active = survival T/C of 150% or more; inactive = T/C below 125% in these data.

Tested on: P388 leukemia ip, CD2F1 mice, survival T/C
Test: NCI In Vivo Anticancer Drug Screen. Data for tumor model P388 Leukemia (intraperitoneal) in CD2F1 (CDF1) mice
Conditions: endpoint: median survival time, higher = longer survival
Outline: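 Mice carrying the transplanted tumor received test compound or vehicle. Survival was recorded in each group, and the value is the treated-group measurement divided by that of the vehicle-treated control group.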

[1] = dose: 50.0 mg/kg/injection, schedule: Q01DX009 (ip), vehicle: saline with Tween-80
[2] = dose: 100.0 mg/kg/injection, schedule: Q01DX009 (ip), vehicle: saline with Tween-80
[3] = dose: 200.0 mg/kg/injection, schedule: Q01DX009 (ip), vehicle: saline with Tween-80
[4] = dose: 60.0 mg/kg/injection, schedule: Q01DX005 (ip), vehicle: saline
[5] = dose: 12.5 mg/kg/injection, schedule: Q01DX009 (ip), vehicle: saline
[6] = dose: 25.0 mg/kg/injection, schedule: Q01DX009 (ip), vehicle: saline
[7] = dose: 50.0 mg/kg/injection, schedule: Q01DX009 (ip), vehicle: saline
[8] = dose: 100.0 mg/kg/injection, schedule: Q01DX009 (ip), vehicle: saline
[9] = dose: 200.0 mg/kg/injection, schedule: Q01DX009 (ip), vehicle: saline
[10] = dose: 60.0 mg/kg/injection, schedule: Q01DX005 (ip), vehicle: saline with Tween-80
[11] = dose: 120.0 mg/kg/injection, schedule: Q01DX005 (ip), vehicle: saline with Tween-80
[12] = dose: 240.0 mg/kg/injection, schedule: Q01DX005 (ip), vehicle: saline with Tween-80

Measured: T/C

Cc1c2nc(N)nc-2ccc2[nH]c(N)nc12
inactive: dose: 0.5 mg/kg/injection, schedule: Q01DX009 (ip), vehicle: Klucel (hydroxypropylcellulose) (HPC) 102 % of control | dose: 1.0 mg/kg/injection, schedule: Q01DX009 (ip), vehicle: Klucel (hydroxypropylcellulose) (HPC) 108 % of control | dose: 2.0 mg/kg/injection, schedule: Q01DX009 (ip), vehicle: Klucel (hydroxypropylcellulose) (HPC) 108 % of control | dose: 4.0 mg/kg/injection, schedule: Q01DX009 (ip), vehicle: Klucel (hydroxypropylcellulose) (HPC) 102 % of control

O=C(O)c1cc(C(=O)CCCCC(=O)c2cc(C(=O)O)c(O)c3ccccc23)c2ccccc2c1O
inactive: [1] 90 % of control | [2] 90 % of control | [3] 92 % of control

CCOP(=O)(OCC)C1CCC(=O)O1 (stereo unspecified)
inactive: dose: 15.0 mg/kg/injection, schedule: Q01DX005 (ip), vehicle: saline 100 % of control | dose: 30.0 mg/kg/injection, schedule: Q01DX005 (ip), vehicle: saline 99 % of control | [4] 99 % of control and 94 % of control

Oc1ccc(O)c(Cl)c1Cl
inactive: [5] 105 % of control | [6] 98 % of control | dose: 25.0 mg/kg/injection, schedule: Q04DX003 (ip), vehicle: saline 106 % of control and 113 % of control | [7] 96 % of control | dose: 50.0 mg/kg/injection, schedule: Q04DX003 (ip), vehicle: saline 100 % of control and 120 % of control | [8] 104 % of control | dose: 100.0 mg/kg/injection, schedule: Q04DX002 (ip), vehicle: saline + alcohol 108 % of control | dose: 100.0 mg/kg/injection, schedule: Q04DX003 (ip), vehicle: saline 101 % of control and 118 % of control | dose: 200.0 mg/kg/injection, schedule: Q04DX002 (ip), vehicle: saline + alcohol 108 % of control | dose: 200.0 mg/kg/injection, schedule: Q04DX003 (ip), vehicle: saline 105 % of control | dose: 400.0 mg/kg/injection, schedule: Q04DX002 (ip), vehicle: saline + alcohol 99 % of control

C=C(C)C(=O)OC1CCC2(C)C(CCC3C2CCC2(C)C(c4ccc(=O)oc4)CCC32O)C1 (stereo unspecified)
inactive: [5] 86 % of control | [6] 98 % of control | [7] 101 % of control and 94 % of control | [9] 95 % of control

O=C(O)C1=C(/C=C(/c2ccccc2)c2ccc(Cl)cc2)OCCC1
inactive: [1] 90 % of control | [2] 94 % of control | [3] 105 % of control

CCC[C@@H](O)CC(=O)N[C@@H](CO)c1ccccc1
inactive: [4] 96 % of control | dose: 120.0 mg/kg/injection, schedule: Q01DX005 (ip), vehicle: saline 95 % of control | dose: 240.0 mg/kg/injection, schedule: Q01DX005 (ip), vehicle: saline 96 % of control

COc1ccc2c(-c3ccc(O)cc3)c(-c3ccccc3)c(=O)oc2c1
inactive: [10] 86 % of control | [11] 97 % of control | [12] 89 % of control

O=S(=O)(F)c1ccc(C[P+](c2ccccc2)(c2ccccc2)c2ccccc2)cc1Cl
inactive: dose: 15.0 mg/kg/injection, schedule: Q01DX005 (ip), vehicle: saline with Tween-80 111 % of control | dose: 30.0 mg/kg/injection, schedule: Q01DX005 (ip), vehicle: saline with Tween-80 106 % of control | [10] 110 % of control and 86 % of control

Nc1nc(N)c(C(=O)SCc2ccccc2)nc1Cl
inactive: dose: 50.0 mg/kg/injection, schedule: Q01DX009 (ip), vehicle: Klucel (hydroxypropylcellulose) (HPC) 107 % of control | dose: 100.0 mg/kg/injection, schedule: Q01DX009 (ip), vehicle: Klucel (hydroxypropylcellulose) (HPC) 95 % of control | dose: 200.0 mg/kg/injection, schedule: Q01DX009 (ip), vehicle: Klucel (hydroxypropylcellulose) (HPC) 91 % of control

CC(=O)OC1CCC2(C)C(=CCC3C4CC(C5(O)C(=O)Nc6ccccc65)C(=O)C4(C)CCC32)C1 (stereo unspecified)
inactive: dose: 25.0 mg/kg/injection, schedule: Q01DX009 (ip), vehicle: saline with Tween-80 102 % of control | [1] 93 % of control | [2] 94 % of control

COc1ccccc1Nc1nc(-c2ccc([N+](=O)[O-])o2)cs1
inactive: dose: 50.0 mg/kg/injection, schedule: Q01DX005 (ip), vehicle: saline with Tween-80 93 % of control | dose: 100.0 mg/kg/injection, schedule: Q01DX005 (ip), vehicle: saline with Tween-80 86 % of control | dose: 200.0 mg/kg/injection, schedule: Q01DX005 (ip), vehicle: saline with Tween-80 88 % of control

O=C(O)C1CCCN1 (stereo unspecified)
inactive: [7] 98 % of control | [8] 100 % of control | [9] 100 % of control

C/C=C/C=C/c1cc2cc3c(c(O)c2c(=O)[nH]1)C1(CC3)C(O)=c2c(=O)c3c(=O)cc(OC)c(=O)c=3c(=O)c2=C1O (stereo unspecified)
active: dose: 6.0 mg/kg/injection, schedule: Q01DX009 (ip), vehicle: Klucel (hydroxypropylcellulose) (HPC) 156 % of control | dose: 12.0 mg/kg/injection, schedule: Q01DX009 (ip), vehicle: Klucel (hydroxypropylcellulose) (HPC) 192 % of control | dose: 500.0 micrograms/kg/injection, schedule: Q01DX009 (ip), vehicle: water 153 % of control | dose: 1000.0 micrograms/kg/injection, schedule: Q01DX009 (ip), vehicle: water 160 % of control and 178 % of control | dose: 2000.0 micrograms/kg/injection, schedule: Q01DX009 (ip), vehicle: water 175 % of control
inactive: dose: 0.12 mg/kg/injection, schedule: Q01DX009 (ip), vehicle: other 116 % of control | dose: 0.25 mg/kg/injection, schedule: Q01DX009 (ip), vehicle: other 118 % of control | dose: 0.5 mg/kg/injection, schedule: Q01DX009 (ip), vehicle: other 87 % of control and 100 % of control | dose: 0.75 mg/kg/injection, schedule: Q01DX009 (ip), vehicle: Klucel (hydroxypropylcellulose) (HPC) 98 % of control | dose: 1.0 mg/kg/injection, schedule: Q01DX009 (ip), vehicle: other 113 % of control | dose: 1.5 mg/kg/injection, schedule: Q01DX009 (ip), vehicle: Klucel (hydroxypropylcellulose) (HPC) 99 % of control | dose: 1.5 mg/kg/injection, schedule: Q01DX009 (ip), vehicle: saline with Tween-80 112 % of control | dose: 8.0 mg/kg/injection, schedule: Q01DX009 (ip), vehicle: other 123 % of control | dose: 12.0 mg/kg/injection, schedule: Q01DX009 (ip), vehicle: saline with Tween-80 87 % of control | dose: 63.0 micrograms/kg/injection, schedule: Q01DX009 (ip), vehicle: other 101 % of control | dose: 63.0 micrograms/kg/injection, schedule: Q01DX009 (ip), vehicle: water 101 % of control and 110 % of control | dose: 125.0 micrograms/kg/injection, schedule: Q01DX009 (ip), vehicle: other 99 % of control | dose: 125.0 micrograms/kg/injection, schedule: Q01DX009 (ip), vehicle: water 112 % of control and 119 % of control | dose: 250.0 micrograms/kg/injection, schedule: Q01DX009 (ip), vehicle: other 102 % of control | dose: 250.0 micrograms/kg/injection, schedule: Q01DX009 (ip), vehicle: water 119 % of control and 120 % of control | dose: 500.0 micrograms/kg/injection, schedule: Q01DX009 (ip), vehicle: other 114 % of control | dose: 1000.0 micrograms/kg/injection, schedule: Q01DX009 (ip), vehicle: other 115 % of control

COc1ccc(NC(=O)CCC(=O)C(C)C(=O)c2ccccc2)cc1 (stereo unspecified)
inactive: [10] 109 % of control | [11] 114 % of control | [12] 120 % of control

COc1cccc2c1C(=O)c1c(O)c3c(c(O)c1C2=O)CC(O)(C(C)=O)CC3OC1CC(N/C(C)=C/C(C)=O)C(O)C(C)O1 (stereo unspecified)
inactive: dose: 3.13 mg/kg/injection, schedule: Q04DX003 (ip), vehicle: distilled water + Tween-80 94 % of control | dose: 6.25 mg/kg/injection, schedule: Q04DX003 (ip), vehicle: distilled water + Tween-80 103 % of control | dose: 12.5 mg/kg/injection, schedule: Q04DX003 (ip), vehicle: distilled water + Tween-80 103 % of control | dose: 25.0 mg/kg/injection, schedule: Q04DX003 (ip), vehicle: distilled water + Tween-80 115 % of control and 119 % of control | dose: 200.0 mg/kg/injection, schedule: Q04DX003 (ip), vehicle: distilled water + Tween-80 102 % of control

CCOC(=O)CC1CCCN1 (stereo unspecified)
inactive: dose: 25.0 mg/kg/injection, schedule: Q01DX005 (ip), vehicle: saline 110 % of control | dose: 50.0 mg/kg/injection, schedule: Q01DX005 (ip), vehicle: saline 101 % of control | dose: 100.0 mg/kg/injection, schedule: Q01DX005 (ip), vehicle: saline 97 % of control | dose: 200.0 mg/kg/injection, schedule: Q01DX005 (ip), vehicle: saline 106 % of control

O=C(CCCCCCCC(=O)NO)NO
inactive: [10] 95 % of control | [11] 100 % of control | [12] 105 % of control
